From patent US20230382904A1, “SUBSTITUTED 4-([1,2,4]TRIAZOLO[1,5-a]PYRIDIN-6-YL)THIOPHENE-2-CARBOXAMIDE DERIVATIVES AND USE THEREOF” (The Johns Hopkins University, priority 2020, published 2023)

How the values were obtained:
[1] = molecular target: LZK (Homo sapiens (Human), UniProt O43283); experiment: LZK biochemical assay (TR-FRET, MKK7 phosphorylation)
Protocol: LZK assay is a biochemical assay format designed to screen for inhibitors of LZK. Enzymatic activity of LZK was measured by monitoring phosphorylation of the physiological substrate MKK7 (MAP2K7, Dual specificity mitogen-activated protein kinase kinase 7). Phosphorylation was detected by a TR-FRET system whereby His-tagged MKK7 was labeled by a XL665-labeled anti-His antibody (FRET acceptor, emission 665 nm). LZK phosphorylates MKK7 at T275/S277 which were detected by an Eu-labeled anti-phospho-MKK7 (T275/S277) antibody (FRET donor, excitation 340 nm). Phosphorylation of MKK7 results in an increased TR-FRET signal (Ratio XL665-channel/Eu-channel) and inhibition of enzymatic activity of LZK decreases the TR-FRET signal.
Assay Protocol for 384 low volume MTP format: 1 μl of test compound was pipetted into test plate; +5 μl LZK solution (10 nM LZK, catalytic domain, Carna Biosiences in assay buffer); +5 μl substrate solution (15 nM MKK7, LDB; 15 μM ATP, in assay buffer); 90 min incubation at RT; +5 μl detection mix (20 nM XL665-labeled anti-His antibody, Cisbio; 0.4 nM Eu-labeled anti-phospho-MKK7 (T275/S277), Cisbio/Millipore in detection buffer), 16 h incubation at 32° C.; endpoint measurement BMG (HTRF).
(§1) All indicated concentrations final concentrations.
Assay buffer (384 format): 50 mM Hepes pH 7.5, 10 mM MgCl2, 1 mM EGTA, 1 mM DTT, 0.01% Triton X-100, 0.01% BSA, 1:500 Smart Block.
(§2) Detection buffer: 25 mM Tris/HCl pH 7.5, 100 mM EDTA, 100 mM NaCl, 200 mM KF, 0.01% Tween 20, 1:500 Smart Block.

[2] = molecular target: DLK (Homo sapiens (Human), UniProt Q12852); experiment: DLK biochemical assay (TR-FRET, MKK7 phosphorylation)
Protocol: DLK assay is a biochemical assay format designed to screen for inhibitors of DLK. Enzymatic activity of DLK was measured by monitoring phosphorylation of the physiological substrate MKK7 (MAP2K7, Dual specificity mitogen-activated protein kinase kinase 7). Phosphorylation was detected by a TR-FRET system whereby His-tagged MKK7 was labeled by a XL665-labeled anti-His antibody (FRET acceptor, emission 665 nm). DLK phosphorylates MKK7 at T275/S277, which was detected by an Eu-labeled anti-phospho-MKK7 (T275/S277) antibody (F RET donor, excitation 340 nm). Phosphorylation of MKK7 results in an increased TR-FRET signal (Ratio XL665-channel/Eu-channel) and inhibition of enzymatic activity of DLK decreases the TR-FRET signal.
Assay Protocol for 1536 MTP format: test compounds were predispensed (60 nl) in test plates; +3 μl DLK solution (10 nM DLK, catalytic domain, Carna Biosiences, 0.6 mM DTT in assay buffer); +2 μl substrate solution (15 nM MKK7, LDB; 60 μM ATP; 0.4 mM DTT in assay buffer); 90 min incubation at RT; +2 μl detection mix (5 nM XL665-labeled anti-His antibody, Cisbio; 0.1 nM Eu-labeled anti-phospho-MKK7 (T275/S277), Cisbio/Millipore in detection buffer); 16 h incubation at 37° C.; endpoint measurement BMG (HTRF).
Assay Protocol for 384 low volume MTP format: 1 μl of test compounds were pipetted into test plate; +5 μl DLK solution (10 nM DLK, catalytic domain, Carna Biosiences in assay buffer); +5 μl substrate solution (15 nM MKK7, LDB; 60 μM ATP, in assay buffer); 90 min incubation at RT; +9 μl detection mix (20 nM XL665-labeled anti-His antibody, Cisbio; 0.4 nM Eu-labeled anti-phospho-MKK7 (T275/S277), Cisbio/Millipore in detection buffer); 16 h incubation at 4° C.; endpoint measurement BMG (HTRF).
as §1
Assay buffer (384 format): 50 mM Hepes pH 7.5, 10 mM MgCl2, 1 mM EGTA, 1 mM DTT, 0,01% Triton X-100, 0.01% BSA, 1:500 Smart Block.
as §2

Sequence of DLK (Q12852 1-520): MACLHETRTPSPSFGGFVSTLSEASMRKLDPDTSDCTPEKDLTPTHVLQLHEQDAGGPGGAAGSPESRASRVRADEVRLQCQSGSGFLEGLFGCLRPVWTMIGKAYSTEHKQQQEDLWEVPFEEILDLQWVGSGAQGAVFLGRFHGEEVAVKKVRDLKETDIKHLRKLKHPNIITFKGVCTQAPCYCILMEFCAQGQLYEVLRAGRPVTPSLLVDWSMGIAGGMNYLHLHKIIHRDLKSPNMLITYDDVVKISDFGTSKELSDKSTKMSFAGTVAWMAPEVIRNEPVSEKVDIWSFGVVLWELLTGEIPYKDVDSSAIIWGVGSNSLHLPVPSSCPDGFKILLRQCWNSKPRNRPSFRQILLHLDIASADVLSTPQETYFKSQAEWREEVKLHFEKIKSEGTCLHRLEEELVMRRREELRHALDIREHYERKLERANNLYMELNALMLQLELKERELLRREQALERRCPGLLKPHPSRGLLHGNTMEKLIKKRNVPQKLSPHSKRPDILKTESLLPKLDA
Sequence of LZK (O43283 168-409): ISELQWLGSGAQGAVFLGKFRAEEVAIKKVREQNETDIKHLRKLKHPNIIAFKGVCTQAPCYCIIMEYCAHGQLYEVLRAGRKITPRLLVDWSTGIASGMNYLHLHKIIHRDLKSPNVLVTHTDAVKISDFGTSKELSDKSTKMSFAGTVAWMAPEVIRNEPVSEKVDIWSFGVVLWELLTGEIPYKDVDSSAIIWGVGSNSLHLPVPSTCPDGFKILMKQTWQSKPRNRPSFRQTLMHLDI

| IC50 [1] [nM] | IC50 [2] [nM] | SMILES |
| --- | --- | --- |
| 40 | 9.3 | C[C@@H](CO)NC(=O)c1cc(-c2csc(C(=O)NCc3ccccc3)c2)cn2nc(N)nc12 [Compound 21] |
| 650 | 185 | Nc1nc2c(C(=O)NC3CCNC3)cc(-c3csc(C(=O)NCc4ccc(F)cc4)c3)cn2n1 (stereo not shown) [Compound 22] |
| 630 | 300 | CC(C)(C)NC(=O)c1cc(-c2csc(C(=O)NCc3nc4ccccc4o3)c2)cn2nc(N)nc12 [Compound 23] |
| 630 | 69 | COCCNC(=O)c1cc(-c2csc(C(=O)NCc3ccc(F)cc3)c2)cn2nc(N)nc12 [Compound 24] |
| 61 | 4.61 | C[C@H](NC(=O)c1cc(-c2cc(C(=O)N[C@@H](C)CO)c3nc(N)nn3c2)cs1)c1ccccc1 [Compound 25] |
| 68 | 6.4 | C[C@H](NC(=O)c1cc(-c2cc(C(=O)N[C@@H](C)CO)c3nc(N)nn3c2)cs1)c1ccc(F)cc1 [Compound 26, 2-Amino-6-(5-{[(1S)-1-(4-fluorophenyl)ethyl]carbamoyl}thiophen-3-yl)-N-[(2S)-1-hydroxypropan-2-yl][1,2,4]triazolo[1,5-a]pyridine-8-carboxamide] |
| 99 | 58 | CC(NC(=O)c1cc(-c2csc(C(=O)NCc3ccc(F)cc3)c2)cn2nc(N)nc12)C(F)(F)F (stereo not shown) [Compound 27] |
| 45 | 16 | C[C@@H](CO)NC(=O)c1cc(-c2csc(C(=O)NCc3ccc(F)cc3)c2)cn2nc(N)nc12 [Compound 30] |
| 170 | 13 | COc1cccc(CNC(=O)c2cc(-c3cc(C(=O)N[C@@H](C)CO)c4nc(N)nn4c3)cs2)c1 [Compound 31] |
| 120 | 32 | CC(C)NC(=O)c1cc(-c2csc(C(=O)NCc3nc4ccccc4o3)c2)cn2nc(N)nc12 [Compound 35] |
| 840 | 230 | Nc1nc2c(C(=O)NC3CCNC3)cc(-c3csc(C(=O)NCc4ccccc4)c3)cn2n1 (stereo not shown) [Compound 36] |
| 1250 | 220 | COc1cccc(CNC(=O)c2cc(-c3cc(C(=O)NC4CCNC4)c4nc(N)nn4c3)cs2)c1 (stereo not shown) [Compound 37] |
| 130 | 17 | Nc1nc2c(C(=O)NC3CNC(=O)C3)cc(-c3csc(C(=O)NCc4ccccc4)c3)cn2n1 (stereo not shown) [Compound 38] |
| 590 | 37.5 | C[C@@H](CO)NC(=O)c1cc(-c2csc(C(=O)NC3CCCCC3)c2)cn2nc(N)nc12 [Compound 39] |
| 380 | 39 | C[C@@H](CO)NC(=O)c1cc(-c2csc(C(=O)NCc3nc4ccccc4o3)c2)cn2nc(N)nc12 [Compound 40] |
| 480 | 70 | NC(=O)c1cc(-c2csc(C(=O)NCc3ccc(F)cc3)c2)cn2nc(N)nc12 [Compound 42] |
| 1400 | 47 | C[C@H](NC(=O)c1cc(-c2cc(C(=O)NC3CC3)c3nc(N)nn3c2)cs1)c1ccccc1 [Compound 44] |
| 430 | 24 | C[C@H](NC(=O)c1cc(-c2cc(C(=O)NC3CC3)c3nc(N)nn3c2)cs1)c1ccc(F)cc1 [Compound 45] |
| 1200 | 360 | Nc1nc2c(C(=O)NC3CC3)cc(-c3csc(C(=O)NCc4ccc(F)cc4)c3)cn2n1 [Compound 46] |
| 235 | 20.5 | Nc1nc2c(C(=O)NC3CCC3)cc(-c3csc(C(=O)NCc4ccccc4)c3)cn2n1 [Compound 52] |
| 6100 | 280 | Nc1nc2c(C(=O)NCC(F)(F)F)cc(-c3csc(C(=O)NCc4ccccc4)c3)cn2n1 [Compound 53] |
| 2300 | 120 | Nc1nc2c(C(=O)NC3CC3)cc(-c3csc(C(=O)NCc4ccccc4)c3)cn2n1 [Compound 56] |

| IC50 [1] [nM] | IC50 [2] [nM] | SMILES |
| --- | --- | --- |
| 330 | 29.5 | Nc1nc2c(C(=O)NC3CCC3)cc(-c3csc(C(=O)NCc4ccc(F)cc4)c3)cn2n1 [Compound 58] |
| 255 | 4.35 | C[C@H](NC(=O)c1cc(-c2cc(C(=O)NC3CCC3)c3nc(N)nn3c2)cs1)c1ccccc1 [Compound 59] |
| 295 | 5.25 | C[C@H](NC(=O)c1cc(-c2cc(C(=O)NC3CCC3)c3nc(N)nn3c2)cs1)c1ccc(F)cc1 [Compound 60] |
| 3700 | 570 | Nc1nc2c(C(=O)NCC(F)(F)F)cc(-c3csc(C(=O)NCc4ccc(F)cc4)c3)cn2n1 [Compound 61] |
| 10000 | 120 | C[C@H](NC(=O)c1cc(-c2cc(C(=O)NCC(F)(F)F)c3nc(N)nn3c2)cs1)c1ccccc1 [Compound 62] |
| 4600 | 120 | C[C@H](NC(=O)c1cc(-c2cc(C(=O)NCC(F)(F)F)c3nc(N)nn3c2)cs1)c1ccc(F)cc1 [Compound 63] |
| 7000 | 200 | Nc1nc2c(C(=O)NC3COC3)cc(-c3csc(C(=O)NCc4ccccc4)c3)cn2n1 [Compound 64] |
| 19000 | 100 | C[C@H](NC(=O)c1cc(-c2cc(C(=O)NC3COC3)c3nc(N)nn3c2)cs1)c1ccccc1 [Compound 65] |
| 1700 | 200 | COC[C@H](C)NC(=O)c1cc(-c2csc(C(=O)NCc3ccccc3)c2)cn2nc(N)nc12 [Compound 67] |
| 1600 | 300 | COC[C@H](C)NC(=O)c1cc(-c2csc(C(=O)NCc3ccc(F)cc3)c2)cn2nc(N)nc12 [Compound 68] |
| 1100 | 60 | COC[C@H](C)NC(=O)c1cc(-c2csc(C(=O)N[C@@H](C)c3ccc(F)cc3)c2)cn2nc(N)nc12 [Compound 69] |
| 1400 | 76 | COC[C@H](C)NC(=O)c1cc(-c2csc(C(=O)N[C@@H](C)c3ccccc3)c2)cn2nc(N)nc12 [Compound 70] |
| 5600 | 320 | Nc1nc2c(C(=O)NC3COC3)cc(-c3csc(C(=O)NCc4ccc(F)cc4)c3)cn2n1 [Compound 74] |
| 4200 | 67 | CC[C@H](NC(=O)c1cc(-c2cc(C(=O)NC3COC3)c3nc(N)nn3c2)cs1)c1ccccc1 [Compound 75] |
| 87 | 5.15 | CC[C@H](NC(=O)c1cc(-c2cc(C(=O)NC(C)C)c3nc(N)nn3c2)cs1)c1ccccc1 [Compound 76] |
| 36 | 1.8 | CC[C@H](NC(=O)c1cc(-c2cc(C(=O)N[C@@H](C)CO)c3nc(N)nn3c2)cs1)c1ccccc1 [Compound 77] |
| 210 | 11.5 | C[C@H](NC(=O)c1cc(-c2cc(C(=O)NC(C)(C)CO)c3nc(N)nn3c2)cs1)c1ccccc1 [Compound 79] |
| 130 | 56.5 | CC(C)(CO)NC(=O)c1cc(-c2csc(C(=O)NCc3ccc(F)cc3)c2)cn2nc(N)nc12 [Compound 80] |
| 140 | 10 | CC[C@H](NC(=O)c1cc(-c2cc(C(=O)N[C@@H](C)COC)c3nc(N)nn3c2)cs1)c1ccccc1 [Compound 81] |
| 455 | 12.5 | CCNC(=O)c1cc(-c2csc(C(=O)N[C@@H](CC)c3ccccc3)c2)cn2nc(N)nc12 [Compound 82] |
| 4200 | 73 | CC(C)NC(=O)c1cc(-c2csc(C(=O)N[C@@H](C)c3ccc(C(F)(F)F)cc3)c2)cn2nc(N)nc12 [Compound 83] |
| 340 | 19 | CC[C@H](NC(=O)c1cc(-c2cc(C(=O)NC(C)(C)C)c3nc(N)nn3c2)cs1)c1ccccc1 [Compound 84] |
